Data taken from paper PMC4955148, “Identification and functional characterization of novel xylose transporters from the cell factories Aspergillus niger and Trichoderma reesei” (Biotechnology for Biofuels, 2016).

System: T1, AnXltB
T1 construct: gene xltB; whole-cell uptake
Assay: […]-sugar initial uptake ([…] s) in yeast, Michaelis-Menten fit
Format: cell-based, Aspergillus niger
Conditions: labelled compound; transport into intact cells; 100 mM PBS pH 6.5, 30 °C; read-out: Xylose initial uptake kinetics / K m

For OC1OC[C@@H](O)[C@H](O)[C@H]1O (stereo partly shown) [xylose], which Km is on record?
Its Km is 15 ± 4.5 mM.
